From ChEMBL document CHEMBL1134720, “Antitumour benzothiazoles. Part 15: The synthesis and physico-chemical properties of 2-(4-aminophenyl)benzothiazole sulfamate salt derivatives” (Bioorg Med Chem Lett, 2001)

Key:
[1] = Log P (Cyclohexane:buffer pH 7.4); assay type: physicochemical
[2] = Log P (Octanol:buffer pH 7.4); assay type: physicochemical
[3] = system: MCF7; assay: Antitumor activity expressed as inhibitory concentration against human breast cell line MCF-7(ER+ve); assay type: functional, cell-based
[4] = Antitumor activity expressed as inhibitory concentration against human breast cell line MDA 468(ER-ve); assay type: functional, cell-based; conditions: MDA-MB-468
[5] = Solubility of compound at pH 6; assay type: physicochemical; conditions: buffer
[6] = Solubility of compound at pH 7.1; assay type: physicochemical; conditions: buffer
[7] = Solubility of compound at pH 4.2; assay type: physicochemical; conditions: buffer
[8] = Solubility of compound at pH 7.5; assay type: physicochemical; conditions: buffer
[9] = Solubility of compound at pH 5.4; assay type: physicochemical; conditions: buffer
[10] = Solubility of compound at pH 9; assay type: physicochemical; conditions: buffer
[11] = Delta Log P was determined; assay type: physicochemical; conditions: octanol/water

| SMILES | logD [1] | logD [2] | IC50 [3] | IC50 [4] | solubility [5] | solubility [6] | solubility [7] | solubility [8] | solubility [9] | solubility [10] | delta Log P [11] |
| --- | --- | --- | --- | --- | --- | --- | --- | --- | --- | --- | --- |
| Cc1cc(-c2nc3ccccc3s2)ccc1N | 2.51 | 3.96 | – | – | – | – | – | – | – | – | – |
| Nc1ccc(-c2nc3ccccc3s2)cc1Br | > 2.8 | > 3.3 | – | – | – | – | – | – | – | – | – |
| Nc1ccc(-c2nc3ccccc3s2)cc1Cl | > 3.2 | > 3.3 | – | – | – | – | – | – | – | – | – |
| O=S(=O)([O-])Nc1ccc(-c2nc3ccccc3s2)cc1I.[Na+] | 1.9 | 1.8 | 1800 nM | 1900 nM | – | – | – | – | – | – | – |
| O=S(=O)([O-])Nc1ccc(-c2nc3ccccc3s2)cc1Cl.[Na+] | < 2.19 | 0.02 | 420 nM | 9000 nM | 400 µg/mL | 300 µg/mL | 500 µg/mL | 300 µg/mL | 300 µg/mL | 700 µg/mL | > 2.17 |
| Cc1cc(-c2nc3ccccc3s2)ccc1NS(=O)(=O)[O-].[Na+] | < 3 | 0.6 | 490 nM | 720 nM | – | – | – | – | – | – | > 2.4 |
| Nc1ccc(-c2nc3ccccc3s2)cc1I | > 2.7 | > 3.3 | – | – | – | – | – | – | – | – | – |
| O=S(=O)(O)Nc1ccc(-c2nc3ccccc3s2)cc1 | – | 3.4 | 3400 nM | 7500 nM | – | – | – | – | – | – | – |
